Test results published in patent publication US20160075653A1, “NEMATICIDAL N-(PHENYLCYCLOALKYL)CARBOXAMIDES AND N-(PHENYLCYCLOALKYL)THIOCARBOXAMIDES” (BAYER CROPSCIENCE AKTIENGESELLSCHAFT, priority 2013, published 2016).
Read-outs that look alike come from different tables or passages of the source.

What was measured:
Boophilus microplus = Boophilus microplus injection test (BOOPMI Inj); type: in vivo; details: application rate 20 μg/animal, injection into abdomen of adult engorged female ticks, after 7 days
Procedure: Boonhilus micronlus—Injectiontest (BOOPMI Inj)
Solvent: dimethyl sulfoxide
To produce a suitable preparation of active compound, 10 mg of active compound are dissolved in 0.5 ml solvent, and the concentrate is diluted with solvent to the desired concentration.
Five adult engorged female ticks (Boophilus microplus) are injected with 1 μl compound solution into the abdomen. Ticks are transferred into replica plates and incubated in a climate chamber.
After 7 days the egg deposition of fertile eggs is monitored. Eggs where fertility is not visible are stored in a climate chamber till hatching after about 42 days. An efficacy of 100% means that all eggs are infertile; 0% means that all eggs are fertile.

[1] = Measurement of log P values by HPLC on reversed phase columns (methods [a] pH 2.3, [b] pH 2.7, [c] pH 7.8); type: physicochemical; details: for chromatographic logP: reversed phase HPLC columns, read-out: logP
Summary of the method: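 Retention times were converted to log P by linear interpolation between linear alkan-2-one standards (3 to 16 carbons) of known log P. Eluents, each with 10% to 95% acetonitrile gradient: phosphoric acid 0.1% at pH 2.3 [a]; formic acid 0.1% at pH 2.7, LC-MS [b]; ammonium hydrogen carbonate 0.001 molar at pH 7.8, LC-MS [c].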

Cooperia curticei = Cooperia curticei test (COOPCU), larval mortality; type: in vivo; details: for activity (larval mortality): application rate 4 ppm, after 5 days; for mortality at 20 ppm: Cooperia curticei, 120 h, read-out: activity (larval mortality)
Procedure: Cooneria curtice—Test (COOPCU) Solvent: dimethyl sulfoxide
(§1) To produce a suitable preparation of active compound, 10 mg of active compound are dissolved in 0.5 ml solvent, and the concentrate is diluted with “Ringer's solution” to the desired concentration.
Approximately 40 nematode larvae (Cooperia curticei) are transferred into a test tube containing the compound solution.
After 5 days percentage of larval mortality is recorded. 100% efficacy means all larvae are killed; 0% efficacy means no larvae are killed.

Haemonchus contortus = Haemonchus contortus test (HAEMCO), larval mortality; type: in vivo; details: 120 h, read-out: activity (larval mortality)
Procedure: Haemonchus contortus—Test (HAEMCO) Solvent: dimethyl sulfoxide
as §1
Approximately 40 larvae of the red stomach worm (Haemonchus contortus) are transferred into a test tube containing compound solution.
After 5 days percentage of larval mortality are recorded. 100% efficacy means all larvae are killed, 0% efficacy means no larvae are killed.

Meloidogyne incognita = Meloidogyne incognita test (MELGIN), gall formation on salad seedlings; type: in vivo; details: application rate 20 ppm, after 14 days
Summary of the method: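 Sand vessels treated with acetone-formulated compound diluted in water, then inoculated with M. incognita eggs and larvae and sown with salad seeds. Root galling assessed after 14 days: 100% = no galls, 0% = galling equal to untreated plants.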

[2] = HPLC reversed phase, method [b] (pH 2.7)
[3] = pH 2.7, HPLC reversed phase, method [b] (pH 2.7)
[4] = HPLC reversed phase, method [c] pH 7.8
[5] = HPLC on reversed phase column, method [b], pH 2.7
[6] = HPLC on reversed phase column, method [c], pH 7.8

Row | SMILES | logP [1, 2] | nematicidal activity (percentage of gall formation; 100% = no galls) (Meloidogyne incognita) | also measured
1 | Cc1nn(C)c(F)c1C(=O)N[C@@H]1C[C@H]1c1ccccc1Cl (relative stereo) [Compound 49] | – | – | activity (efficacy: infertile eggs) (Boophilus microplus): 80%; logP ([1]; HPLC on reversed phase columns, method [b], pH 2.7): 2.40^[b]
2 | O=C(N[C@@H]1C[C@@H]1c1ccc(Cl)cc1Cl)c1ccccc1Br (relative stereo) [Compound 579] | 3.32^[b] | – | activity (larval mortality) (Cooperia curticei): 80%
3 | O=C(NC1CCC1c1ccc(Cl)cc1Cl)c1ccccc1 (stereo not shown) [Compound 451] | 3.30^[b] | – | activity (larval mortality) (Cooperia curticei): 90%
4 | O=C(N[C@@H]1CC[C@@H]1c1ccc(Cl)cc1Cl)c1ccccc1I [Compound 456] | – | 100% | mortality at 20 ppm (Haemonchus contortus): 100%; mortality at 20 ppm (Cooperia curticei): 100%; chromatographic logP [1, 3]: 3.75
5 | O=C(NC1CC1c1ccc(Cl)cc1)c1ncccc1C(F)(F)F (stereo not shown) [Compound 462] | 2.85^[b] | 100% | logP [1, 4]: 2.81^[c];
6 | O=C(NC1CC1c1ccc(Cl)cc1)c1cccnc1C(F)F (stereo not shown) [Compound 465] | 2.15^[b] | 100% | logP [1, 4]: 2.14^[c];
7 | O=C(NC1CCC1c1ccc(Cl)cc1Cl)c1ccccc1Br (stereo not shown) [Compound 472] | 3.60^[b] | 90% | –
8 | O=C(NC1CCC1c1ccc(Cl)cc1Cl)c1c(F)cccc1F (stereo not shown) [Compound 473] | 3.36^[b] | 90% | –
9 | O=C(NC1CCC1c1ccc(Cl)cc1Cl)c1ccccc1C(F)(F)F (stereo not shown) [Compound 476] | 3.72^[b] | 90% | –
10 | O=C(NC1CCC1c1ccc(F)cc1C(F)(F)F)c1ncccc1Cl (stereo not shown) [Compound 479] | 3.11^[b] | 100% | –
11 | O=C(NC1CCC1c1ccc(Cl)cc1Cl)c1cccnc1C(F)(F)F (stereo not shown) [Compound 481] | 3.20^[b] | 100% | –
12 | O=C(NC1CCC1c1ccc(Cl)cc1Cl)c1c(F)cccc1F (stereo not shown) [Compound 482] | 3.70^[b] | 90% | –
13 | Cn1cc(C(=O)NC2CCC2c2ccc(F)cc2C(F)(F)F)c(C(F)F)n1 (stereo not shown) [Compound 485] | 2.84^[b] | 90% | –
14 | O=C(N[C@@H]1CC[C@@H]1c1c(F)cccc1F)c1ccccc1C(F)(F)F [Compound 513] | – | 100% | mortality at 20 ppm (Haemonchus contortus): 90%; mortality at 20 ppm (Cooperia curticei): 80%; chromatographic logP [1, 3]: 3.15
15 | O=C(NC1CCC1c1cc(F)ccc1C(F)(F)F)c1cccc(Cl)c1 (stereo not shown) [Compound 517] | 3.65^[b] | 100% | –
16 | O=C(NC1CCC1c1cc(F)ccc1C(F)(F)F)c1ncccc1Cl (stereo not shown) [Compound 518] | 3.08^[b] | 100% | –
17 | O=C(NC1CCC1c1ccc(F)cc1C(F)(F)F)c1sccc1I (stereo not shown) [Compound 519] | 4.09^[b] | 90% | –
18 | O=C(NC1CCC1c1ccc(F)cc1C(F)(F)F)c1sccc1I (stereo not shown) [Compound 520] | 3.82^[b] | 100% | –
19 | O=C(N[C@@H]1CC[C@@H]1c1ccccc1C(F)(F)F)c1cccnc1Cl [Compound 621] | – | 100% | mortality at 20 ppm (Haemonchus contortus): 90%; mortality at 20 ppm (Cooperia curticei): 100%; chromatographic logP ([1]; pH 2.7, HPLC on reversed phase column, method [b], pH 2.7): 2.64
20 | O=C(NC1CCC1c1ccccc1C(F)(F)F)c1nccnc1C(F)(F)F (stereo not shown) [Compound 684] | – | 100% | logP [1, 5]: 3.15^[b]; logP [1, 6]: 3.10^[c];
21 | O=C(NC1CCC1c1ccccc1C(F)(F)F)c1ncccc1Br (stereo not shown) [Compound 695] | – | 100% | logP [1, 5]: 3.17^[b]; logP [1, 6]: 3.10^[c];
